Entries after “also recorded” stand apart in the source; their conditions may differ. Non-standard residues stand in square brackets, D forms with d.
Assays:
[1] = tested on: facial artery of LDL receptor null mice; assay: Facial artery ring vasoreactivity, acetylcholine relaxation after oral treatment; format: in vivo; settings: Western diet, 1 mg/mL in drinking water, six weeks
apoe null mice = settings: oral DMPC; cited from earlier work
mouse facial artery = settings: published studies; cited from earlier work
LDL receptor null mice = assay: T-maze continuous alternation task (T-CAT), spatial memory; format: in vivo
Experimental: T-maze continuous alternation task (T-CAT) testing took place daily between 9 A.M. and 4 P.M. and was performed by one investigator unaware of the treatment groups. The mice were delivered to the testing room two hours prior to behavioral studies to allow familiarization with the extra-maze visual cues of the room. The T-maze apparatus used in our studies is identical to the one described by Gerlai et al. (Gerlai (1998) Behavioural Brain Research, 95: 91-101) and was made of transparent acrylic walls with a black acrylic bottom. The dimensions of start and goal arms were: length 75 cm, width 12 cm and height 20 cm. The maze was equipped with three removable guillotine doors that could be operated by manual remote control. The testing room was illuminated by ceiling and floor lights and a fan provided a constant background noise. The T-maze was separated from the investigator by a black curtain and the movement of the mice in the maze was observed on a TV monitor and videotaped. After each individual mouse the T-maze was carefully cleaned with Windex spray and dried with paper towels. The T-maze continuous alternation task (T-CAT) limits the handling of mice and permits their exploratory behavior to be carried out undisturbed. The procedure used in this study is identical to that described by Gerlai et al. (Id.) and consisted of one forced and 14 free choice trials. Consecutive choices made by the mice were measured and the alternation rate during the 14 free choice trials was calculated (0%-no alternation, 100%-alternation at each trial, 50%-random choice). The time (in seconds) needed to complete the 15 trials was recorded and analyzed. The T-CAT testing was continuously registered by a video tracking system (SD Instruments Inc., San Diego, Calif.) and stored on a computer. Statistics were performed using StatView software (SAS Institute, Cary, N.C.)

[2] = tested on: brain arterioles of LDL receptor null mice; assay: Brain arteriolar wall thickness and lumen diameter by morphometry on H&E sections; format: in vivo; settings: Western diet 6 weeks, 300 μg/mL in drinking water, D-4F vs scrambled D-4F
Experimental: Female wild-type and LDL receptor null C57BL/6 mice were from Jackson Laboratories (Bar Harbour, Me.). The mice were maintained on a chow diet (Ralston Purina) prior to administration of a Western diet (Teklad/Harlan, Madison Wis., diet No. 88137; 42% fat, 0.15% cholesterol, w/w). For studies of brain arterioles the mice were anesthetized with intramuscular ketamine (100 mg/kg) and acepromazine (2.5 mg/kg) and the heart was perfused via the left ventricle with 25 mL phosphate buffered saline (PBS) containing heparin (10 U/mL) followed by 100 mL of 4% paraformaldehyde (PFA) in PBS at pH 7.4 as described by Fernagut et al. (Fernagut et al. (2002) Neuroscience, 114: 1005-1017; Fernagut et al. (2004) Exp Neurol., 185: 47-62). Brains were quickly removed and stored for 24 hrs in 4% PFA at 4° C. and then transferred to 10% sucrose in PBS (pH 7.4) and left until they sank to the bottom of the solution. The right half of the brains were embedded in OCT (Tissue-Tek; Miles Laboratories Ltd, Elkhart Ind.) and frozen in isopentane at −40° C. and stored at −80° C. until sectioned in a cryostat at −20° C. The frozen brain was cut into 8 μm sections coronally to include the underlying white matter and stained with hematoxylin-eosin (H&E) and for smooth muscle α-actin (Serotec, Raleigh, N.C.). […]
(§1) Morphometry was performed to determine vascular wall thickness for all arterioles that were distended and perpendicularly cross-sectioned. […] A minimum of 10 arteries from each diameter group was examined in the cortical area and the deep white matter regions from each brain, and the wall thickness and wall to lumen ratios determined. The ratio of immunoreactive media thickness to the internal diameter of each vessel was assessed in sections immunostained for smooth muscle α-actin. […] Inter-observer variation was determined by having the three investigators measure the same 20 arterioles for wall thickness and lumen diameter and calculate the wall to lumen ratio. […]

[3] = Plasma lipoprotein and lipid levels; format: in vivo, mice
Experimental: Plasma lipoprotein and lipid levels were determined as described previously (Navab et al. (2004) Circulation, 109:r120-r125; Navab et al. (2005) Arterioscler Thromb Vasc Biol., 25: 1-7).

[4] = tested on: brain arteriolar smooth muscle α-actin; assay: Brain arteriolar smooth muscle α-actin immunostaining, wall to lumen ratio; format: in vivo; settings: LDL receptor null mice, Western diet 6 weeks, 300 μg/mL in drinking water; D-4F vs scrambled D-4F
Experimental: Female wild-type and LDL receptor null C57BL/6 mice were from Jackson Laboratories (Bar Harbour, Me.). The mice were maintained on a chow diet (Ralston Purina) prior to administration of a Western diet (Teklad/Harlan, Madison Wis., diet No. 88137; 42% fat, 0.15% cholesterol, w/w). For studies of brain arterioles the mice were anesthetized with intramuscular ketamine (100 mg/kg) and acepromazine (2.5 mg/kg) and the heart was perfused via the left ventricle with 25 mL phosphate buffered saline (PBS) containing heparin (10 U/mL) followed by 100 mL of 4% paraformaldehyde (PFA) in PBS at pH 7.4 as described by Fernagut et al. (Fernagut et al. (2002) Neuroscience, 114: 1005-1017; Fernagut et al. (2004) Exp Neurol., 185: 47-62). […]
as §1

LDL lipid hydroperoxides = settings: mice, oral D-4F, without changing plasma lipid levels; cited from earlier work
[5] = LDL receptor null mice, Western diet 6 weeks, 300 μg/mL in drinking water, Mean±SEM

Compound | acetylcholine vasorelaxation of facial artery rings [1] | HDL-cholesterol (apoe null mice) | atherosclerosis (apoe null mice) | plasma apoA-I levels (apoe null mice) | vasoreactivity of facial arteries (mouse facial artery) | performance in the T-maze / T-CAT (spatial memory) (LDL receptor null mice; LDL receptor null mice, Western diet, oral treatment) | time to complete the 15 trials (LDL receptor null mice; LDL receptor null mice, Western diet, oral treatment, difference not statistically significant) [s] | performance in the T-maze / T-CAT (spatial memory) (LDL receptor null mice; LDL receptor null mice, Western diet, oral treatment, listed as D4F) | number of spontaneous alternations in the T-maze test (LDL receptor null mice; LDLR−/− mice, Western diet six weeks, 300 μg/mL in drinking water) | brain arteriolar wall thickness [2] | lumen diameters of the brain arterioles [2] | ratio of wall to lumen diameter [2] | difference in plasma total cholesterol, LDL-cholesterol, HDL-cholesterol or triglycerides ([3]; D-4F compared to scrambled D-4F) | HDL cholesterol concentration [3, 5] [mg/dL] | LDL cholesterol concentration [3, 5] [mg/dL] | Triglycerides [3, 5] [mg/dL] | plasma total cholesterol concentration [3, 5] | brain arteriolar wall smooth muscle α-actin content [4] | LDL lipid hydroperoxides (LDL lipid hydroperoxides)
CCCCCCCCCCCCCC(=O)OCC(COP(=O)([O-])OCC[N+](C)(C)C)OC(=O)CCCCCCCCCCCCC (racemic) [DMPC, 1,2-ditetradecanoyl-rac-glycerol-3-phosphocholine] | significant improvement; also recorded: improves | increase | prevention and regression | increase | – | – | – | – | – | – | – | – | – | – | – | – | – | – | –
Ac-D-W-F-K-A-F-Y-D-K-V-A-E-K-F-K-E-A-F-NH2 [4F] (Ac-DWFKAFYDKVAEKFKEAF-NH2) [Peptide 4F] | – | – | – | – | dramatically improved | – | – | – | – | – | – | – | – | – | – | – | – | – | –
Ac-D-W-F-K-A-F-Y-D-K-V-A-E-K-F-K-E-A-F-NH2 [D-4F] (Ac-[dD][dW][dF][dK][dA][dF][dY][dD][dK][dV][dA][dE][dK][dF][dK][dE][dA][dF]-NH2) [Peptide D-4F, apoA-I mimetic peptide] | – | – | – | – | improved | significantly improved | 548 ± 37 | improvement | significantly improved | decreased; also recorded: reduced | no difference | significantly less | no significant difference | 86 ± 6 | 924 ± 76 | 330 ± 25 | 1,076±75 mg/dL | significantly reduced | decrease
